Key:
corn = assay: Test B pre/postemergence corn; type: in vivo, Zea mays
Procedure, shortened: (§1)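 Herbicidal effect was estimated by eye on a ten-point control scale after plants spent twelve to sixteen days in a greenhouse following soil or foliar treatment. Foliar sprays targeted plants at one to four leaves; all doses were formulated in a non-phytotoxic solvent with surfactant.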

cocklebur = assay: Test B pre/postemergence cocklebur; type: in vivo, Xanthium strumarium
Procedure, shortened: as §1

soybean = assay: Test B pre/postemergence soybean; type: in vivo, Glycine max
Procedure, shortened: as §1

surinam grass = assay: Test B pre/postemergence surinam grass; type: in vivo, Brachiaria decumbens
Procedure, shortened: as §1

duck salad = assay: Test B flood test duck salad; type: in vivo, Heteranthera limosa
Procedure, shortened: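 Read-out is a visual response score from 0 (no effect) to 10 (complete control), assigned by comparison with untreated controls. Treatment was applied at the 2-leaf stage, and plants stayed in the greenhouse for twelve to sixteen days before scoring.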

morningglory = assay: Test B pre/postemergence morningglory; type: in vivo, Ipomoea hederacea
Procedure, shortened: as §1

pigweed = assay: Test B pre/postemergence pigweed; type: in vivo, Amaranthus retroflexus
Procedure, shortened: as §1

crabgrass = assay: Test B pre/postemergence crabgrass; type: in vivo, Digitaria sanguinalis
Procedure, shortened: as §1

sugar beet = assay: Test B pre/postemergence sugar beet; type: in vivo, Beta vulgaris; conditions: for Plant response rating, Sugarbeets: Rate 250 g/ha
Procedure, shortened: as §1

giant foxtail = assay: Test B pre/postemergence giant foxtail; type: in vivo, Setaria faberii
Procedure, shortened: as §1

wheat = assay: Test B pre/postemergence wheat; type: in vivo, Triticum aestivum; conditions: for Plant response rating, Wheat: Rate 250 g/ha
Procedure, shortened: as §1

purple nutsedge = assay: Test B pre/postemergence purple nutsedge; type: in vivo, Cyperus rotundus
Procedure, shortened: as §1

bedstraw = assay: Test B pre/postemergence bedstraw; type: in vivo, Galium aparine
Procedure, shortened: as §1

velvetleaf = assay: Test B pre/postemergence velvetleaf; type: in vivo, Abutilon theophrasti; conditions: for Plant response rating, Velvetleaf: Rate 250 g/ha
Procedure, shortened: as §1

rape = assay: Test B pre/postemergence rape; type: in vivo, Brassica napus
Procedure, shortened: as §1

[1] = Postemergence, Rate 125 g/ha, scale of 0 to 10 where 0 is no effect and 10 is complete control
[2] = Postemergence, Rate 250 g/ha, scale 0 to 10, 0 no effect, 10 complete control
[3] = Preemergence, Rate 62 g/ha, scale 0 to 10 (0 no effect, 10 complete control)
[4] = Preemergence, Rate 125 g/ha, scale 0 to 10 (0 no effect, 10 complete control)
[5] = Preemergence, Rate 250 g/ha, scale of 0 to 10 where 0 is no effect and 10 is complete control
[6] = Preemergence, Rate 500 g/ha, scale 0 to 10 (0 no effect, 10 complete control)
[7] = Rate 62 g/ha, Postemergence, scale of 0 to 10 where 0 is no effect and 10 is complete control
[8] = Rate 500 g/ha, Postemergence, scale 0 to 10, 0 no effect, 10 complete control
[9] = Rate 250 g/ha, Postemergence, scale 0 to 10, 0 is no effect, 10 is complete control
[10] = Postemergence, Rate 62 g/ha, scale 0 to 10, 0 is no effect, 10 is complete control
[11] = Rate 125 g/ha, Postemergence, scale 0 to 10, 0 no effect, 10 complete control
[12] = Preemergence, Rate 125 g/ha, 0 is no effect, 10 is complete control
[13] = Preemergence, scale of 0 to 10 where 0 is no effect and 10 is complete control
[14] = Postemergence, scale 0 to 10, 0 is no effect, 10 is complete control

C=CCn1c(=O)on(C(=O)N(c2ccc(Cl)cc2)C(C)C)c1=O [Compound 105]
Corn plant response rating (corn; [1]): 0
Corn plant response rating (corn; [2]): 0
Corn plant response rating (corn; [3]): 0
Plant response rating, Corn (corn; [4]): 0
Plant response rating, Corn (corn; [5]): 2
Corn plant response rating (corn; [6]): 3
Corn plant response rating (corn; [7]): 0
Corn plant response rating (corn; [8]): 2
Cocklebur plant response rating (cocklebur; [1]): 0
Cocklebur plant response rating (cocklebur; [2]): 1
Cocklebur plant response rating (cocklebur; [3]): 0
Plant response rating, Cocklebur (cocklebur; [4]): 0
Plant response rating, Cocklebur (cocklebur; [5]): 0
Cocklebur plant response rating (cocklebur; [6]): 0
Cocklebur plant response rating (cocklebur; [7]): 0
Cocklebur plant response rating (cocklebur; [8]): 4
Soybean plant response rating (soybean; [1]): 1
Soybean plant response rating (soybean; [3]): 0
Plant response rating, Soybean (soybean; [4]): 0
Plant response rating, Soybean (soybean; [5]): 0
Soybean plant response rating (soybean; [6]): 0
Soybean plant response rating (soybean; [7]): 1
Plant response rating, Soybean (soybean; [9]): 3
Soybean plant response rating (soybean; [8]): 6
B. signalgrass plant response rating (surinam grass; [10]): 0
B. signalgrass plant response rating (surinam grass; [2]): 3
B. signalgrass plant response rating (surinam grass; [3]): 0
Plant response rating, B. signalgrass (surinam grass; [4]): 1
Plant response rating, B. signalgrass (surinam grass; [5]): 5
B. signalgrass plant response rating (surinam grass; [6]): 10
B. signalgrass plant response rating (surinam grass; [11]): 2
B. signalgrass plant response rating (surinam grass; Rate 500 g/ha, Postemergence, scale of 0 to 10 where 0 is no effect and 10 is complete control): 3
Ducksalad plant response rating (duck salad; Postemergence (flood test species), Rate 125 g/ha, scale of 0 to 10 where 0 is no effect and 10 is complete control): 0
Ducksalad plant response rating (duck salad; Rate 62 g/ha, Postemergence section, flood test species, scale of 0 to 10 where 0 is no effect and 10 is complete control): 0
Ducksalad plant response rating (duck salad; Rate 250 g/ha, headed Pre-emergence (flood test species), scale 0 to 10 (0 no effect, 10 complete control)): 0
Plant response rating, Ducksalad (duck salad; Rate 500 g/ha, headed Pre-emergence (flood test species), scale 0 to 10 (0 no effect, 10 complete control)): 0
Ducksalad plant response rating (duck salad; Rate 500 g/ha, listed under Postemergence (flood test species), scale 0 to 10, 0 no effect, 10 complete control): 0
Ducksalad plant response rating (duck salad; Rate 1000 g/ha, Pre-emergence (as headed), scale 0 to 10): 0
Ducksalad plant response rating (duck salad; Rate 2000 g/ha, Pre-emergence (as headed), scale 0 to 10): 0
Ducksalad plant response rating (duck salad; flood test, listed under Postemergence, Rate 250 g/ha, scale 0 to 10, 0 no effect, 10 complete control): 0
Morningglory plant response rating (morningglory; [1]): 2
Morningglory plant response rating (morningglory; [2]): 3
Morningglory plant response rating (morningglory; [3]): 0
Plant response rating, Morningglory (morningglory; [4]): 0
Plant response rating, Morningglory (morningglory; [5]): 0
Morningglory plant response rating (morningglory; [6]): 0
Morningglory plant response rating (morningglory; [8]): 4
Redroot pigweed plant response rating (pigweed; [1]): 0
Redroot pigweed plant response rating (pigweed; [3]): 0
Plant response rating, Redroot pigweed (pigweed; [4]): 3
Plant response rating, Redroot pigweed (pigweed; [5]): 9
Redroot pigweed plant response rating (pigweed; [6]): 10
Redroot pigweed plant response rating (pigweed; [7]): 0
Plant response rating, Redroot pigweed (pigweed; [9]): 0
Redroot pigweed plant response rating (pigweed; [8]): 3
Crabgrass plant response rating (crabgrass; [1]): 7
Crabgrass plant response rating (crabgrass; [2]): 7
Crabgrass plant response rating (crabgrass; [3]): 2
Plant response rating, Crabgrass (crabgrass; [4]): 8
Plant response rating, Crabgrass (crabgrass; [5]): 8
Crabgrass plant response rating (crabgrass; [6]): 9
Crabgrass plant response rating (crabgrass; [8]): 9
Sugarbeets plant response rating (sugar beet; [1]): 0
Sugarbeets plant response rating (sugar beet; [3]): 0
Sugarbeets plant response rating (0 to 10 scale) (sugar beet; [12]): 1
Plant response rating, Sugarbeets (sugar beet; [13]): 4
Sugarbeets plant response rating (sugar beet; [6]): 9
Sugarbeets plant response rating (sugar beet; [7]): 0
Plant response rating, Sugarbeets (sugar beet; [14]): 0
Sugarbeets plant response rating (sugar beet; [8]): 0
Giant foxtail plant response rating (giant foxtail; [1]): 3
Giant foxtail plant response rating (giant foxtail; [2]): 7
Giant foxtail plant response rating (giant foxtail; [3]): 10
Plant response rating, Giant foxtail (giant foxtail; [4]): 10
Plant response rating, Giant foxtail (giant foxtail; [5]): 10
Giant foxtail plant response rating (giant foxtail; [6]): 10
Giant foxtail plant response rating (giant foxtail; [7]): 2
Giant foxtail plant response rating (giant foxtail; [8]): 8
Wheat plant response rating (wheat; [1]): 0
Wheat plant response rating (wheat; [3]): 0
Wheat plant response rating (0 to 10 scale) (wheat; [12]): 0
Plant response rating, Wheat (wheat; [13]): 0
Wheat plant response rating (wheat; [6]): 2
Wheat plant response rating (wheat; [7]): 0
Plant response rating, Wheat (wheat; [14]): 0
Wheat plant response rating (wheat; [8]): 2
Nutsedge plant response rating (purple nutsedge; [1]): 0
Nutsedge plant response rating (purple nutsedge; [2]): 0
Nutsedge plant response rating (purple nutsedge; [3]): 0
Plant response rating, Nutsedge (purple nutsedge; [4]): 0
Plant response rating, Nutsedge (purple nutsedge; [5]): 0
Nutsedge plant response rating (purple nutsedge; [6]): 0
Nutsedge plant response rating (purple nutsedge; [7]): 0
Nutsedge plant response rating (purple nutsedge; [8]): 2
Bedstraw plant response rating (bedstraw; [10]): 0
Bedstraw plant response rating (bedstraw; [2]): 2
Bedstraw plant response rating (bedstraw; [3]): 0
Plant response rating, Bedstraw (bedstraw; [4]): 0
Plant response rating, Bedstraw (bedstraw; [5]): 0
Bedstraw plant response rating (bedstraw; [6]): 5
Bedstraw plant response rating (bedstraw; [11]): 0
Bedstraw plant response rating (bedstraw; [8]): 3
Velvetleaf plant response rating (velvetleaf; [1]): 0
Velvetleaf plant response rating (velvetleaf; [3]): 0
Velvetleaf plant response rating (0 to 10 scale) (velvetleaf; [12]): 4
Plant response rating, Velvetleaf (velvetleaf; [13]): 5
Velvetleaf plant response rating (velvetleaf; [6]): 6
Velvetleaf plant response rating (velvetleaf; [7]): 0
Plant response rating, Velvetleaf (velvetleaf; [14]): 3
Velvetleaf plant response rating (velvetleaf; [8]): 4
Rape plant response rating (rape; [1]): 0
Rape plant response rating (rape; [2]): 0
Rape plant response rating (rape; [3]): 0
Plant response rating, Rape (rape; [4]): 1
Plant response rating, Rape (rape; [5]): 4
Rape plant response rating (rape; [6]): 6
Rape plant response rating (rape; [7]): 0
Rape plant response rating (rape; [8]): 2
